According to patent US20230355598A1, “PYRROLIDINE COMPOUNDS TO TREAT XERODERMA PIGMENTOSUM” (Clinuvel (UK) Ltd., priority 2020, published 2023):

System: Melanocytes
Experiment: Measurement of UV-induced apoptosis by Annexin Va staining
Type: cell-based
Conditions: melanocytes in medium lacking BPE; treated 4 days prior to and 24 h after UV dose 105 mJ/cm^2; vs control
Description: Melanocytes were treated with the different concentrations of the pyrrolidine compound for 4 days prior to, and 24 h after exposure to a UV dose (105 mJ/cm^2), then stained for Annexin Va staining. The data were collected as percent increase above control, with triplicate dishes included in each group. Effect of the pyrrolidine compound vs control on the UV-induced apoptosis were determined in melanocyte strains. Floating as well as attached cells were harvested and stained for Annexin V, and analyzed by flow cytometry.

Structure (SMILES): COC[C@H]1CN(C(=O)[C@]2(F)CN(C3CCCC3)C[C@H]2c2ccc(OC)cc2)C[C@@H]1c1ccc(C(F)(F)F)cc1N1CCC(C(=O)O)CC1 [Dersimelagon, 1-{2-[(3S,4R)-1-{[(3R,4R)-1-cyclopentyl-3-fluoro-4-(4-methoxyphenyl)pyrrolidin-3-yl]carbonyl}-4-(methoxymethyl)pyrrolidin-3-yl]-5-(trifluoromethyl)phenyl}piperidine-4-carboxylic acid]
- Effect on UV-induced apoptosis (Annexin V staining, flow cytometry): beneficial anti-apoptotic effects
